Molecular target: T1, Glucokinase (Homo sapiens, UniProt P35557)
T1 construct: purchased ProteinOne Inc
T1 sequence (P35557 1-465): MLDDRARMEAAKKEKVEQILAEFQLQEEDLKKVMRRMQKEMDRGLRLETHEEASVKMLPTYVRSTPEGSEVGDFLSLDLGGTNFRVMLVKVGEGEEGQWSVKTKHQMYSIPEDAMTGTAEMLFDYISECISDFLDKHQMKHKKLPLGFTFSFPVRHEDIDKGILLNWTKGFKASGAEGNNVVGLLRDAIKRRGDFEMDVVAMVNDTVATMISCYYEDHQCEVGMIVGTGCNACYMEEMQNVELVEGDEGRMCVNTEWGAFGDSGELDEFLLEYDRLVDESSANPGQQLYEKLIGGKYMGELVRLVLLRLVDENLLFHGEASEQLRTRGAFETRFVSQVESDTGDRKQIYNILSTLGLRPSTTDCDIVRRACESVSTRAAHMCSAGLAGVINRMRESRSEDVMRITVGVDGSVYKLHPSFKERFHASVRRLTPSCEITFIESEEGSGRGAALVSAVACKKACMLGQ
Assay: Glucokinase activation assay (NADPH absorbance at 340 nm)
Format: biochemical
Details: glucokinase (ProteinOne Inc.), 5 mM D(+)-glucose, 24° C., 90 minutes
Experimental: The amounts of glucokinase activation were determined by measuring the levels of NADPH (the final metabolite of glucose through glucokinase-mediated phospho-rylation) and then calculating to glucokinase activities.
Glucokinase (ProteinOne Inc.) was added, in the concentration of 100 ng/uL, to a enzyme-reaction medium (25 mM HEPES pH 7, 25 mM KCL, 1 mM MgCl, 5 mM D(+)-glucose, 1 mM ATP, 1 mM NADP, 1 mM DTT, and 2.5 u/mL G6PDH). Each compound in predetermined concentrations was added to the enzyme-reaction medium and then absorbance (First Absorbance) was measured at 340 nm of wavelength. After measuring the first absorbance, each reaction mixture was incubated at 24° C. for 90 minutes and then absorbance (Second Absorbance) was re-measured at 340 nm of wavelength. Using changes between First Absorbance and Second Absorbance, glucokinase activity was calculated. In the calculation, a maximum activity of the test compound (Emax), in comparison to the control group (no treatment of compound) was determined and then EC50 was calculated using the software for statistical analysis “Prism”, based on the activity-changes according to concentrations of the test compounds.
The amounts of glucokinase activation of the compounds of Comparative Examples 1 and 2 were determined, in accordance with the same procedures as in Test Example 1.

Substance	EC50 [nM]
3-[2-(2,3-difluorophenyl)ethyl]-5-(2-methoxy-(1S)-methyl-ethoxy)-N-(1-methyl-1H-pyrazol-3-yl)-benzamide [Example 95]	418
3-[2-(2,3-dimethoxyphenyl)ethyl]-5-(2-methoxy-(1S)-methyl-ethoxy)-N-(1-methyl-1H-pyrazol-3-yl)-benzamide [Example 103]	448
3-[2-(2,3-dimethoxyphenyl)ethyl]-5-(2-methoxy-(1S)-methyl-ethoxy)-N-(thiazol-2-yl)-benzamide [Example 90]	322
3-[2-(2,4-difluorophenyl)ethyl]-5-(2-methoxy-(1S)-methyl-ethoxy)-N-(1-methyl-1H-pyrazol-3-yl)-benzamide [Example 96]	184
3-[2-(2,4-dimethoxyphenyl)ethyl]-5-(2-methoxy-(1S)-methyl-ethoxy)-N-(1-methyl-1H-pyrazol-3-yl)-benzamide [Example 104]	223
3-[2-(2,4-dimethoxyphenyl)ethyl]-5-(2-methoxy-(1S)-methyl-ethoxy)-N-(pyrazin-2-yl)-benzamide [Example 105]	298
3-[2-(2-acetylaminophenyl)ethyl]-5-(2-methoxy-(1S)-methyl-ethoxy)-N-(thiazol-2-yl)benzamide [Example 116]	318
3-[2-(2-benzenesulfonylaminophenyl)ethyl]-5-(2-methoxy-(1S)-methyl-ethoxy)-N-(thiazol-2-yl)-benzamide [Example 115]	210
3-[2-(2-fluorophenyl)ethyl]-5-(2-methoxy-(1S)-methyl-ethoxy)-N-(pyrazin-2-yl)-benz amide [Example 107]	333
3-[2-(2-methoxyphenyl)ethyl]-5-(2-methoxy-(1S)-methyl-ethoxy)-N-(pyrazin-2-yl)-benzamide [Example 106]	304
3-[2-(3,5-dimethoxyphenyl)ethyl]-5-(2-methoxy-(1S)-methyl-ethoxy)-N-(1-methyl-1H-pyrazol-3-yl)-benzamide [Example 99]	117
3-[2-(3-acetylaminophenyl)ethyl]-5-(2-methoxy-(1S)-methyl-ethoxy)-N-(thiazol-2-yl)-benzamide [Example 118]	208
3-[2-(3-benzoylaminophenyl)ethyl]-5-(2-methoxy-(1S)-methyl-ethoxy)-N-(thiazol-2-yl)-benzamide [Example 124]	281
3-[2-(3-butyrylaminophenyl)ethyl]-5-(2-methoxy-(1S)-methyl-ethoxy)-N-(thiazol-2-yl)-benzamide [Example 119]	370
3-[2-(3-chlorophenyl)ethyl]-5-(2-methoxy-(1S)-methyl-ethoxy)-N-(1-methyl-1H-pyrazol-3-yl)-benzamide [Example 102]	264
3-[2-(4-acetylaminophenyl)ethyl]-5-(2-methoxy-(1S)-methyl-ethoxy)-N-(thiazol-2-yl)-benzamide [Example 132]	354
3-[2-(4-aminophenyl)ethyl]-5-(2-methoxy-(1S)-methyl-ethoxy)-N-(thiazol-2-yl)-benzamide [Example 92]	113
3-[2-(4-benzenesulfonylaminophenyl)ethyl]-5-(2-methoxy-(1S)-methyl-ethoxy)-N-(thiazol-2-yl)-benzamide [Example 144]	411
3-[2-(4-benzoylaminophenyl)ethyl]-5-(2-methoxy-(1S)-methyl-ethoxy)-N-(thiazol-2-yl)-benzamide [Example 138]	292
3-[2-(4-butyrylaminophenyl)ethyl]-5-(2-methoxy-(1S)-methyl-ethoxy)-N-(thiazol-2-yl)-benzamide [Example 133]	322
3-[2-(4-fluorophenyl)ethyl]-5-(2-methoxy-(1S)-methyl-ethoxy)-N-(1-methyl-1H-pyrazol-3-yl)-benzamide [Example 98]	216
3-[2-(4-fluorophenyl)ethyl]-5-(2-methoxy-(1S)-methyl-ethoxy)-N-(pyrazin-2-yl)-benz amide [Example 108]	465
3-[2-(4-methoxyphenyl)ethyl]-5-(2-methoxy-(1S)-methyl-ethoxy)-N-(1-methyl-1H-pyrazol-3-yl)-benzamide [Example 100]	314
3-[trans-2-(2,3,5-trifluorophenyl)vinyl]-5-(2-methoxy-(1S)-methyl-ethoxy)-N-(thiazol-2-yl)-benzamide [Example 18]	126
3-[trans-2-(2,3-difluorophenyl)vinyl]-5-(2-methoxy-(1S)-methyl-ethoxy)-N-(1-methyl-1H-pyrazol-3-yl)-benzamide [Example 34]	132
3-[trans-2-(2,3-difluorophenyl)vinyl]-5-(2-methoxy-(1S)-methyl-ethoxy)-N-(pyrazin-2-yl)-benzamide [Example 55]	346
3-[trans-2-(2,3-dimethoxyphenyl)vinyl]-5-(2-methoxy-(1S)-methyl-ethoxy)-N-(5-fluorothiazol-2-yl)-benzamide [Example 28]	118

The next substances have a lower EC50 than those just listed; values first:

EC50 [nM]	Substance
9.5	3-[2-(2,4-difluorophenyl)ethyl]-5-(2-methoxy-(1S)-methyl-ethoxy)-N-(thiazol-2-yl)-benzamide [Example 85]
36.6	3-[2-(2,5-difluorophenyl)ethyl]-5-(2-methoxy-(1S)-methyl-ethoxy)-N-(thiazol-2-yl)-benzamide [Example 86]
34.4	3-[2-(2,6-difluorophenyl)ethyl]-5-(2-methoxy-(1S)-methyl-ethoxy)-N-(thiazol-2-yl)-benzamide [Example 87]
108	3-[2-(2-aminophenyl)ethyl]-5-(2-methoxy-(1S)-methyl-ethoxy)-N-(thiazol-2-yl)-benzamide [Example 88]
85.6	3-[2-(2-chlorophenyl)ethyl]-5-(2-methoxy-(1S)-methyl-ethoxy)-N-(1-methyl-1H-pyrazol-3-yl)-benzamide [Example 101]
41.6	3-[2-(2-fluorophenyl)ethyl]-5-(2-methoxy-(1S)-methyl-ethoxy)-N-(thiazol-2-yl)-benzamide [Example 84]
72.1	3-[2-(2-methanesulfonylaminophenyl)ethyl]-5-(2-methoxy-(1S)-methyl-ethoxy)-N-(thiazol-2-yl)-benzamide [Example 113]
28.4	3-[2-(2-methoxyphenyl)ethyl]-5-(2-methoxy-(1S)-methyl-ethoxy)-N-(thiazol-2-yl)-benzamide [Example 89]
68.9	3-[2-(3-aminophenyl)ethyl]-5-(2-methoxy-(1S)-methyl-ethoxy)-N-(thiazol-2-yl)-benzamide [Example 91]
86.6	3-[trans-2-(2,3,5-trifluorophenyl)vinyl]-5-(2-methoxy-(1S)-methyl-ethoxy)-N-(5-fluorothiazol-2-yl)-benzamide [Example 27]
47.3	3-[trans-2-(2,3-difluorophenyl)vinyl]-5-(2-methoxy-(1S)-methyl-ethoxy)-N-(5-fluorothiazol-2-yl)-benzamide [Example 24]
27.5	3-[trans-2-(2,3-difluorophenyl)vinyl]-5-(2-methoxy-(1S)-methyl-ethoxy)-N-(thiazol-2-yl)-benzamide [Example 9]
